{
  "source": "patent US20190322676A1",
  "about": "“CERAMIDE GALACTOSYLTRANSFERASE INHIBITORS FOR THE TREATMENT OF DISEASE” (BioMarin Pharmaceutical Inc., priority 2016, published 2019)",
  "note": "Structures can show the parent of a compound that is named as a salt.",
  "data": [
    {"target": "T1, human CGT (ceramide galactosyltransferase), CHO/CGT lysate (Homo sapiens, UniProt Q16880)", "T1 construct": "Full-length human CGT cDNA was cloned into the BamH1/Xho1 site of pcDNA3.1 (+); expressed in transfected cells; host or cells: Chinese hamster ovary (CHO) cells; lysate prepared with M-PER", "T1 sequence (Q16880 21-541)": "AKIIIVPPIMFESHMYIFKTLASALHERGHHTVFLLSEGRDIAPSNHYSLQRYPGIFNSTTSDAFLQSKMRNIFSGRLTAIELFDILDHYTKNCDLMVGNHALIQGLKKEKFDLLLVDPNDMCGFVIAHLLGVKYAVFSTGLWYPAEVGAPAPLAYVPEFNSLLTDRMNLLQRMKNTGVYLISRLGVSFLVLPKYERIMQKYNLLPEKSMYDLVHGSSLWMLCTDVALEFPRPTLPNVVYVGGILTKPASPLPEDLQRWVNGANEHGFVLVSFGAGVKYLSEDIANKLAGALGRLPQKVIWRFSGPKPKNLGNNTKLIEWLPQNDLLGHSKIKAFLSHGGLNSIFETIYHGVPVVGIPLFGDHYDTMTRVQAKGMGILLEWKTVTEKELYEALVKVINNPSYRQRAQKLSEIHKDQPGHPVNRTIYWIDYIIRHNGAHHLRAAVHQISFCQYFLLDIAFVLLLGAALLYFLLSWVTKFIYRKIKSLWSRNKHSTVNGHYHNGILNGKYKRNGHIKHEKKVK", "assay": "CGT enzyme assay, RapidFire/MS/MS readout (Table 1 ranges with one asterisk *)", "type": "biochemical", "conditions": "RapidFire method (range with one asterisk *)", "protocol": "Full-length human CGT cDNA was cloned into the BamH1/Xho1 site of pcDNA3.1 (+) mammalian expression vector (V90-20, Invitrogen, Carlsbad, Calif.) and the plasmid was transfected into Chinese hamster ovary (CHO) cells. Lysate was prepared using M-PER (Mammalian Protein Extraction Reagent, ThermoFisher Scientific, Grand Island, N.Y.) in the presence of a protease inhibitor cocktail (P8340, Sigma, Saint Louis, Mo.). Each 100 mm dish (100% confluent, approximately 1×10^7 cells) was lysed with 250 μL of M-PER containing protease inhibitors. Protein concentration was determined using a Pierce BCA protein assay kit (ThermoFisher Scientific). Four micrograms of CHO/CGT lysate was incubated with various concentrations of a compound (0.001 μM-50 μM) in 10 mM HEPES (pH 7.2) containing 35 μM dioleoylphosphatidylcholine, 5 mM MgCl2, 5 mM MnCl2, 1% BSA, 15 mM KCl, 1 mM EGTA, 8 mM CHAPS, 10 μM C6-NBD-dihydro-ceramide and 17.5 μM UDP-galactose in a final reaction volume of 20 μL at 37° C. for 1 hour. The final concentration of DMSO was 0.5% in both compound-treated and mock-treated samples. Tween 80 (0.01%) was optionally added to the reaction mixture to help solubilize the compounds. Each individual reaction was diluted with 80 μL of methanol:acetronitrile (1:3) containing 5 μM N-docdecanoyl-NBD-galactosylceramide (internal standard) to stop the reaction. 200 μL H2O:acetonitile (1:1) was added to precipitate the protein. After sufficient mixing, the plates were centrifuged at 2469 g for 38 minutes, 200 μL of supernatant was transferred to a LC/MS 96-deep well plate and a second spin was performed at 2469 g for 10 minutes. The final supernatant was injected in triplicate for RapidFire/MS/MS analysis.\nQuantitative Analysis Using the RapidFire/MS/MS Method:\nThe quantitative analysis of C6-NBD-dihydro-ceramide and C6-NBD-dihydro-galactosylceramide was performed on a Rapid Fire 360 high-throughput mass spectrometry system (Agilent Technologies, Palo Alto, Calif.) coupled with a API4000^+ triple quadrupole mass spectrometer (Applied Biosystems, Concord, Ontario, Canada). RapidFire software packages, including RapidFire Control panel, RapidFire UI and RapidFire Integrator (Agilent Technologies), were used to control the RapidFire instrument and to process data. Analyst 1.6.2 software packages (Applied Biosystems) were used to control the MS system and acquire MS data. […] of sample was loaded on a micro-scale C4 solid-phase extraction (SPE) cartridge (Agilent Technologies) and salts were removed using water supplemented with 0.1% formic acid at the flow rate of 1.5 mL/min for 3 sec. C6-NBD-dihydro-ceramide and C6-NBD-dihydro-galactosylceramide were co-eluted into the mass spectrometer using acetonitrile containing 0.1% formic acid at the flow rate of 1.0 mL/min for 3 sec. The total cycle time of one injection was 8 secs. The MS/MS detection was performed in ESI negative mode. The mass transition of C6-NBD-dihydro-galactosylceramide was m/z 752.6→678.6 using a −40 V collision energy, the mass transition of C6-NBD-dihydro-ceramide was m/z 590.6→115.8 using a −40 V collision energy and the mass transition of N-docdecanoyl-NBD-galactosylceramide was m/z 820.9→746.3 using a −45 V collision energy.\nThe C6-NBD-dihydro-galactosylceramide reading was normalized first by dividing the peak area of C6-NBD-dihydro-galactosylceramide by the peak area of the internal standard, N-docdecanoyl-NBD-galactosylceramide. IC50 values (see Table 1, where data ranges with one asterix (*) correspond to analysis using the RapidFire/MS/MS method, and data ranges with two asterixes (**) correspond to analysis using the RapidFire/MS/MS method with 0.01% Tween added) were generated from sigmoidal dose-response curves (variable slope) with GraphPad Prism software (GraphPad Software, Inc., San Diego, Calif.) using the normalized peak areas of C6-NBD-dihydro-galactosylceramide or the percent inhibition of C6-NBD-dihydro-galactosylceramide accumulation relative to DMSO control. […]", "units": {"IC50": "µM"}, "values": [
      {"compound": "COc1cc(C(F)(F)[C@@H](NS(=O)(=O)c2ccc3cc(OC4CCCC4)ccc3c2)C(=O)N2C3CCC2CC(N)C3)ccc1Cl", "note": "(single isomer, unassigned) [Compound 124-2]", "IC50": "1 to 10"},
      {"compound": "NC1CC2CCC(C1)N2C(=O)[C@@H](NS(=O)(=O)c1ccc2cc(OC3CCCC3)ccc2c1)C(F)(F)c1ccc(Cl)cc1", "note": "(stereo partly drawn) [Compound 28-1, N-((2R)-3-(3-amino-8-azabicyclo[3.2.1]octan-8-yl)-1-(4-chlorophenyl)-1,1-difluoro-3-oxopropan-2-yl)-6-(cyclopentyloxy)naphthalene-2-sulfonamide trifluoroacetate]", "IC50": "< 1"},
      {"compound": "NC1CC2CCC(C1)N2C(=O)[C@H](NS(=O)(=O)c1ccc2cc(OC3CCCC3)ccc2c1)C(F)(F)c1ccc(Cl)cc1", "note": "(stereo partly drawn) [Compound 28-2, N-((2S)-3-(3-amino-8-azabicyclo[3.2.1]octan-8-yl)-1-(4-chlorophenyl)-1,1-difluoro-3-oxopropan-2-yl)-6-(cyclopentyloxy)naphthalene-2-sulfonamide trifluoroacetate]", "IC50": "1 to 10"},
      {"compound": "NC1CC2CCC(C1)N2C(=O)[C@@H](NS(=O)(=O)c1ccc(OCC2CCCCC2)cc1)C(F)(F)c1ccc(Cl)cc1", "note": "(stereo partly drawn) [Compound 29-1, N-((2R)-3-(3-amino-8-azabicyclo[3.2.1]octan-8-yl)-1-(4-chlorophenyl)-1,1-difluoro-3-oxopropan-2-yl)-4-(cyclohexylmethoxy)benzenesulfonamide trifluoroacetate]", "IC50": "< 1"},
      {"compound": "NC1CC2CCC(C1)N2C(=O)[C@H](NS(=O)(=O)c1ccc(OCC2CCCCC2)cc1)C(F)(F)c1ccc(Cl)cc1", "note": "(stereo partly drawn) [Compound 29-2, N-((2S)-3-(3-amino-8-azabicyclo[3.2.1]octan-8-yl)-1-(4-chlorophenyl)-1,1-difluoro-3-oxopropan-2-yl)-4-(cyclohexylmethoxy) benzenesulfonamide trifluoroacetate]", "IC50": "1 to 10"},
      {"compound": "NC1CCN(C(=O)[C@@H](NS(=O)(=O)c2ccc(OCC3CCCCC3)cc2)C(F)(F)c2ccc(Cl)cc2)CC1", "note": "[Compound 30-1, (R)—N-(3-(4-aminopiperidin-1-yl)-1-(4-chlorophenyl)-1,1-difluoro-3-oxopropan-2-yl)-4-(cyclohexylmethoxy)benzenesulfonamide trifluoroacetate]", "IC50": "1 to 10"},
      {"compound": "NC1CCN(C(=O)[C@H](NS(=O)(=O)c2ccc(OCC3CCCCC3)cc2)C(F)(F)c2ccc(Cl)cc2)CC1", "note": "[Compound 30-2, (S)—N-(3-(4-aminopiperidin-1-yl)-1-(4-chlorophenyl)-1,1-difluoro-3-oxopropan-2-yl)-4-(cyclohexylmethoxy)benzenesulfonamide trifluoroacetate]", "IC50": "10 to 30"},
      {"compound": "CC(C)Oc1ccc2cc(S(=O)(=O)N[C@H](C(=O)N3C4CCC3CC(N)C4)C(F)(F)c3ccc(-c4ccccc4)cc3)ccc2c1", "note": "(stereo partly drawn) [Compound 31-1, N-((2R)-1-([1,1′-biphenyl]-4-yl)-3-(3-amino-8-azabicyclo[3.2.1]octan-8-yl)-1,1-difluoro-3-oxopropan-2-yl)-6-isopropoxynaphthalene-2-sulfonamide trifluoroacetate]", "IC50": "1 to 10"},
      {"compound": "CC(C)Oc1ccc2cc(S(=O)(=O)N[C@@H](C(=O)N3C4CCC3CC(N)C4)C(F)(F)c3ccc(-c4ccccc4)cc3)ccc2c1", "note": "(stereo partly drawn) [Compound 31-2, N-((2S)-1-([1,1′-biphenyl]-4-yl)-3-(3-amino-8-azabicyclo[3.2.1]octan-8-yl)-1,1-difluoro-3-oxopropan-2-yl)-6-isopropoxynaphthalene-2-sulfonamide trifluoroacetate]", "IC50": "10 to 30"},
      {"compound": "NC1CCN(C(=O)[C@@H](NS(=O)(=O)c2ccc3cc(OC4CCCC4)ccc3c2)C(F)(F)c2ccc(Br)cc2)CC1", "note": "[Compound 32-1, (R)—N-(3-(4-aminopiperidin-1-yl)-1-(4-bromophenyl)-1,1-difluoro-3-oxopropan-2-yl)-6-(cyclopentyloxy)naphthalene-2-sulfonamide trifluoroacetate]", "IC50": "< 1"},
      {"compound": "NC1CCN(C(=O)[C@H](NS(=O)(=O)c2ccc3cc(OC4CCCC4)ccc3c2)C(F)(F)c2ccc(Br)cc2)CC1", "note": "[Compound 32-2, (S)—N-(3-(4-aminopiperidin-1-yl)-1-(4-bromophenyl)-1,1-difluoro-3-oxopropan-2-yl)-6-(cyclopentyloxy)naphthalene-2-sulfonamide trifluoroacetate]", "IC50": "10 to 30"},
      {"compound": "NC1CC2CCC(C1)N2C(=O)[C@@H](NS(=O)(=O)c1ccc2cc(OC3CCCCC3)ccc2c1)C(F)(F)c1ccc(Br)cc1", "note": "(stereo partly drawn) [Compound 33-1, N-((2R)-3-(3-amino-8-azabicyclo[3.2.1]octan-8-yl)-1-(4-bromophenyl)-1,1-difluoro-3-oxopropan-2-yl)-6-(cyclohexyloxy)naphthalene-2-sulfonamide trifluoroacetate]", "IC50": "< 1"},
      {"compound": "NC1CC2CCC(C1)N2C(=O)[C@H](NS(=O)(=O)c1ccc2cc(OC3CCCCC3)ccc2c1)C(F)(F)c1ccc(Br)cc1", "note": "(stereo partly drawn) [Compound 33-2, N-((2S)-3-(3-amino-8-azabicyclo[3.2.1]octan-8-yl)-1-(4-bromophenyl)-1,1-difluoro-3-oxopropan-2-yl)-6-(cyclohexyloxy)naphthalene-2-sulfonamide trifluoroacetate]", "IC50": "30 to 100"},
      {"compound": "CN([C@H](C(=O)N1C2CCC1CC(N)C2)C(F)(F)c1ccc(Br)cc1)S(=O)(=O)c1ccc2cc(OC3CCCC3)ccc2c1", "note": "(stereo partly drawn) [Compound 34-1, N-((2R)-3-(3-amino-8-azabicyclo[3.2.1]octan-8-yl)-1-(4-bromophenyl)-1,1-difluoro-3-oxopropan-2-yl)-6-(cyclopentyloxy)-N-methylnaphthalene-2-sulfonamide trifluoroacetate]", "IC50": "< 1"},
      {"compound": "CN([C@@H](C(=O)N1C2CCC1CC(N)C2)C(F)(F)c1ccc(Br)cc1)S(=O)(=O)c1ccc2cc(OC3CCCC3)ccc2c1", "note": "(stereo partly drawn) [Compound 34-2, N-((2S)-3-(3-amino-8-azabicyclo[3.2.1]octan-8-yl)-1-(4-bromophenyl)-1,1-difluoro-3-oxopropan-2-yl)-6-(cyclopentyloxy)-N-methylnaphthalene-2-sulfonamide trifluoroacetate]", "IC50": "30 to 100"},
      {"compound": "NC1CC2CCC(C1)N2C(=O)[C@@H](NS(=O)(=O)c1ccc(OCC2CCCCC2)cc1)C(F)(F)c1ccc(-c2ccccc2)cc1", "note": "(stereo partly drawn) [Compound 35-1, N-((2R)-1-([1,1′-biphenyl]-4-yl)-3-(3-amino-8-azabicyclo[3.2.1]octan-8-yl)-1,1-difluoro-3-oxopropan-2-yl)-4-(cyclohexylmethoxy)benzenesulfonamide trifluoroacetate]", "IC50": "< 1"}
    ]}
  ]
}
